This is an account of results in publication PMC4488288, “Inhibition of the Inositol Kinase Itpkb Augments Calcium Signaling in Lymphocytes and Reveals a Novel Strategy to Treat Autoimmune Disease” (PLoS ONE, 2015).

In the experiment the target is T1, Itpkb (inositol trisphosphate 3' kinase B) (Mus musculus, UniProt B2RXC2).
T1 sequence (B2RXC2 1-942): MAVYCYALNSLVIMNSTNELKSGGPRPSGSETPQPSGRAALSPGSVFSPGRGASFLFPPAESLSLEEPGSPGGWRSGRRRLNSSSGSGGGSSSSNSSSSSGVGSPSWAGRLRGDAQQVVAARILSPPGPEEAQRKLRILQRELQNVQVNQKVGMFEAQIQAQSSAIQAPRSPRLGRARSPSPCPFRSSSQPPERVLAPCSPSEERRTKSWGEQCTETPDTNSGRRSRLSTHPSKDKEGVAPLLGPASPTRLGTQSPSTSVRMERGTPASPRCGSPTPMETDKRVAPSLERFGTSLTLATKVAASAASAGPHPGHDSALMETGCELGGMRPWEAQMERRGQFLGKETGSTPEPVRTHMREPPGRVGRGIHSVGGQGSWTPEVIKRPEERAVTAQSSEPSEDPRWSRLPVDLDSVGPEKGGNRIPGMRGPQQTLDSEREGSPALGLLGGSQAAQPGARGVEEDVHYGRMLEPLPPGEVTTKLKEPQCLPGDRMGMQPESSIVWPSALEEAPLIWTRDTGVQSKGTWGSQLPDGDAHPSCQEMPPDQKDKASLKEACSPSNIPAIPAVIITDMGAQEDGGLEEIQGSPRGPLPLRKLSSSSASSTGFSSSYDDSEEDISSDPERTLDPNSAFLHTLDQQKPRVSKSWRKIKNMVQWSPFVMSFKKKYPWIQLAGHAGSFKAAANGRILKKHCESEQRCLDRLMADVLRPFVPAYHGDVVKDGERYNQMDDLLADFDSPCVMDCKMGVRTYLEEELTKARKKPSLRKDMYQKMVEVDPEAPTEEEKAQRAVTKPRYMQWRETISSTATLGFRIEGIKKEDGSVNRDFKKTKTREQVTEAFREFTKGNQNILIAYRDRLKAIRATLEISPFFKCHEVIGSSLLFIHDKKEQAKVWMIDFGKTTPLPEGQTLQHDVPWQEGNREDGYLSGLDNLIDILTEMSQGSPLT
In words: Kinase-Glo assay with purified Itpkb ([…] Itpkb, […] ATP, […] IP3). It is filed as biochemical.

GNF362 returned a half-maximal inhibitory concentration (IC50) of 9 nM.

Broadly, the IC50 is the concentration that inhibits the measured activity by half. Low readings indicate greater potency in that assay, high ones weaker potency in that assay.
